Structures can show the parent of a compound that is named as a salt.
What follows are compounds tested against T1, rh beta tryptase (Homo sapiens, UniProt Q15661) (assay: tryptase inhibition in vitro test (cleavage of N-p-tosyl-Gly-Pro-Lys-para-nitroaniline, p-nitroaniline measured at 405 nm)). Conditions: rh beta tryptase 0.91 U/ml, substrate 0.6 mM, Tris HCl buffer with calcium and heparin, pH 7.4, 37° C., 5 minutes incubation; read-out: Tryptase-inhibiting activity.
T1 construct: purchased Promega
T1 sequence (Q15661 31-275): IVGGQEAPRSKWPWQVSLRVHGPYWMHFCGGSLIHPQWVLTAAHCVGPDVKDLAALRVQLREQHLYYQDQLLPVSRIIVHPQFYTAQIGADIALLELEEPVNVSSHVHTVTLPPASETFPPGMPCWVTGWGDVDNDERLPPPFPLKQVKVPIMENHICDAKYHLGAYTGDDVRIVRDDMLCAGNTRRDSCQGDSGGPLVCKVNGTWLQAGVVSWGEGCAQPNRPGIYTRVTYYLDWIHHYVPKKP
Type: biochemical
How it was run: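 Chromogenic assay in 100 mM Tris HCl pH 7.4 with 5 mM calcium and […], 0.91 U/ml enzyme, 0.6 mM substrate. Compound preincubated 5 min, then p-nitroaniline at 405 nm after 5 min, 37° C. Screening at 10 μM as % inhibition; IC50 determined when inhibition exceeded 70%.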

| Compound | IC50 |
| --- | --- |
| CN(C(=O)CN1CCC(Nc2ccccc2)CC1)c1ccc2c(c1)nc(CCc1ccc(C(=N)N)cc1)n2C [Example 108, N-{2-[2-(4-Amidinophenyl)-ethyl]-1-methyl-benzimidazol-5-yl}-N-methyl-2-[4-(phenylamino)-piperid-1-yl]-acetamide, dihydrochloride] | 4 to 30 nM |
| N-{2-[2-(4-Amidinophenyl)-ethyl]-1-methyl-benzimidazol-5- yl}-N-[ethanecarboxylic acid]-2-[4-(2-pyridylamino)-piperid- 1-yl]-acetamide, dihydrochloride [Example 54] | 4 to 30 nM |
| N-{2-[2-(4-Amidinophenyl)-ethyl]-1-methyl-benzimidazol-5- yl}-N-[naphth-1-ylmethyl]-N′-[4-(2-naphthylmethylamino)]- urea, hydrochloride [Example 80] | 31 to 1000 nM |

Reference: patent US6656956B2, “Benzimidazole derivatives, processes for preparing them and their use as pharmaceutical compositions” (Boehringer Ingelheim Pharma KG, priority 2001, dated 2003)
